Assay results: PubChem BioAssay AID1963832 (Molecular Pharmacology Branch, DTP, NCI, 2024)

Test system: 885724-159-R-J1-PDC complex spheroid viability
Assay: Anticancer human tumor 885724-159-R-J1-PDC patient-derived pancreatic adenocarcinoma cell line growth inhibition [POLQ]
Conditions: for IC50: curve of first compound; for viability, T/C: stronger effect = lower value
Outline: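 Patient-derived tumour cells were co-cultured with HUVEC and mesenchymal stem cells as multicellular spheroids at 37 °C. They were treated with POLQ inhibitors (novobiocin, ART-558, RP6685) alone or combined with other agents. Top concentrations were at or near clinical Cmax (otherwise 10 microM; SN-38 at 1 microM), decreasing in half-log steps.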

[1] = second compound 0.0316 µM, first compound 0.0316 µM
[2] = second compound 0.0316 µM, first compound 0.1 µM
[3] = second compound 0.0316 µM, first compound 0.316 µM
[4] = second compound 0.0316 µM, first compound 1 µM
[5] = second compound 0.0316 µM, first compound 3.16 µM
[6] = second compound 0.0316 µM, first compound 10 µM
[7] = second compound 0.1 µM, first compound 0.0316 µM
[8] = second compound 0.1 µM, first compound 0.1 µM
[9] = second compound 0.1 µM, first compound 0.316 µM
[10] = second compound 0.1 µM, first compound 1 µM
[11] = second compound 0.1 µM, first compound 3.16 µM
[12] = second compound 0.1 µM, first compound 10 µM
[13] = second compound 0.316 µM, first compound 0.0316 µM
[14] = second compound 0.316 µM, first compound 0.1 µM
[15] = second compound 0.316 µM, first compound 0.316 µM
[16] = second compound 0.316 µM, first compound 1 µM
[17] = second compound 0.316 µM, first compound 3.16 µM
[18] = second compound 0.316 µM, first compound 10 µM
[19] = second compound 1 µM, first compound 0.0316 µM
[20] = second compound 1 µM, first compound 0.1 µM
[21] = second compound 1 µM, first compound 0.316 µM
[22] = second compound 1 µM, first compound 1 µM
[23] = second compound 1 µM, first compound 3.16 µM
[24] = second compound 1 µM, first compound 10 µM
[25] = second compound 3.16 µM, first compound 0.0316 µM
[26] = second compound 3.16 µM, first compound 0.1 µM
[27] = second compound 3.16 µM, first compound 0.316 µM
[28] = second compound 3.16 µM, first compound 1 µM
[29] = second compound 3.16 µM, first compound 3.16 µM
[30] = second compound 3.16 µM, first compound 10 µM
[31] = second compound 10 µM, first compound 0.0316 µM
[32] = second compound 10 µM, first compound 0.1 µM
[33] = second compound 10 µM, first compound 0.316 µM
[34] = second compound 10 µM, first compound 1 µM
[35] = second compound 10 µM, first compound 3.16 µM
[36] = second compound 10 µM, first compound 10 µM
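Further: spheroids exposed to compounds for 7 days.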

**Q.** Which results are given for `Nc1ccn(C2OC(CO)C(O)C2(F)F)c(=O)n1` (centres undefined) + Cc1cccc(N(C)C(=O)C2C(O)CCN2c2nc(C)cc(C(F)(F)F)c2C#N)c1?
**A.** IC50 (second compound 0.0316 µM): 5.14 µM; IC50 (second compound 0.1 µM): > 10 µM; IC50 (second compound 0.316 µM): 4.24 µM; IC50 (second compound 1 µM): 4.15 µM; IC50 (second compound 3.16 µM): 3.06 µM; IC50 (second compound 10 µM): 7.26 µM; viability, T/C [1]: 59.3%; viability, T/C [2]: 55.2%; viability, T/C [3]: 55.2%; viability, T/C [4]: 52.1%; viability, T/C [5]: 56.2%; viability, T/C [6]: 42.8%; viability, T/C [7]: 70.7%; viability, T/C [8]: 56%; viability, T/C [9]: 57.5%; viability, T/C [10]: 58.2%; viability, T/C [11]: 55.3%; viability, T/C [12]: 45.9%; viability, T/C [13]: 67.2%; viability, T/C [14]: 58.5%; viability, T/C [15]: 55%; viability, T/C [16]: 57.6%; viability, T/C [17]: 53.1%; viability, T/C [18]: 45.4%; viability, T/C [19]: 65.1%; viability, T/C [20]: 55.4%; viability, T/C [21]: 58.2%; viability, T/C [22]: 57.4%; viability, T/C [23]: 53.1%; viability, T/C [24]: 42.8%; viability, T/C [25]: 66%; viability, T/C [26]: 56.7%; viability, T/C [27]: 52%; viability, T/C [28]: 56.8%; viability, T/C [29]: 54.5%; viability, T/C [30]: 42.8%; viability, T/C [31]: 68.9%; viability, T/C [32]: 55.5%; viability, T/C [33]: 59.3%; viability, T/C [34]: 56%; viability, T/C [35]: 58%; viability, T/C [36]: 45.1%

**Q.** Which results are given for `O=c1[nH]cc(F)c(=O)[nH]1` + Cc1cccc(N(C)C(=O)C2C(O)CCN2c2nc(C)cc(C(F)(F)F)c2C#N)c1?
**A.** IC50 (second compound 0.0316 µM): > 10 µM; IC50 (second compound 0.1 µM): > 10 µM; IC50 (second compound 0.316 µM): > 10 µM; IC50 (second compound 1 µM): > 10 µM; IC50 (second compound 3.16 µM): > 10 µM; IC50 (second compound 10 µM): > 10 µM; viability, T/C [1]: 98.5%; viability, T/C [2]: 101%; viability, T/C [3]: 95.8%; viability, T/C [4]: 100%; viability, T/C [5]: 90.2%; viability, T/C [6]: 76.4%; viability, T/C [7]: 97.7%; viability, T/C [8]: 104%; viability, T/C [9]: 98.7%; viability, T/C [10]: 106%; viability, T/C [11]: 90%; viability, T/C [12]: 74.7%; viability, T/C [13]: 98.7%; viability, T/C [14]: 88.6%; viability, T/C [15]: 97.5%; viability, T/C [16]: 99%; viability, T/C [17]: 87.5%; viability, T/C [18]: 71.9%; viability, T/C [19]: 111%; viability, T/C [20]: 107%; viability, T/C [21]: 101%; viability, T/C [22]: 98.2%; viability, T/C [23]: 92%; viability, T/C [24]: 76.7%; viability, T/C [25]: 114%; viability, T/C [26]: 96.2%; viability, T/C [27]: 88%; viability, T/C [28]: 100%; viability, T/C [29]: 87.3%; viability, T/C [30]: 71.7%; viability, T/C [31]: 99%; viability, T/C [32]: 101%; viability, T/C [33]: 89.8%; viability, T/C [34]: 89.4%; viability, T/C [35]: 92.9%; viability, T/C [36]: 78.6%
